Assay results as given in patent publication US10934294B2, “Substituted pyrazolo[3,4-d]pyrimidines as PDE9 inhibitors” (Merck Sharp & Dohme Corp., priority 2017, dated 2021).
Where two headings read alike, the source gives them in different places. Each block holds one compound with its values, some of them ahead of it.

Molecular target: Human PDE9 (PDE9A2) (Homo sapiens (Human), UniProt O76083)
Experiment: PDE9 IMAP fluorescence polarization (FP) inhibition assay
Format: biochemical
[1] = read-out: PDE9 IMAP Ki, apparent inhibition constant, FAM-cGMP substrate 50 nM, room temperature
[2] = apparent inhibition constant, FAM-cGMP substrate 50 nM, room temperature, read-out: PDE9 IMAP Ki

Chain of Human PDE9 (PDE9A2) (O76083 other isoform, or with tags, fused parts or gaps): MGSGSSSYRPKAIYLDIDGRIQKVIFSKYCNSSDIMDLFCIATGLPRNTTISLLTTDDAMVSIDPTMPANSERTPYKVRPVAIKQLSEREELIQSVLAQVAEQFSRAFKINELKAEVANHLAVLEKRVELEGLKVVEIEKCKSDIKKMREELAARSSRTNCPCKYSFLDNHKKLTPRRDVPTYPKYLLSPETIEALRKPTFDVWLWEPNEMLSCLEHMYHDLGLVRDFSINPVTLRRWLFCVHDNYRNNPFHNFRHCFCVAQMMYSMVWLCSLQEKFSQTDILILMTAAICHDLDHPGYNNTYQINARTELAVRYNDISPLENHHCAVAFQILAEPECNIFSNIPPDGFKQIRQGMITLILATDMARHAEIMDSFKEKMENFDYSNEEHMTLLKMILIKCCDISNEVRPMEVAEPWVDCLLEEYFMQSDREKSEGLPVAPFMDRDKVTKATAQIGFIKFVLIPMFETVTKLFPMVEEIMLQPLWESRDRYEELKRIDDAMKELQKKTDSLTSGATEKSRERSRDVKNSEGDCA

Structure (SMILES): CC(c1cncc(F)c1)n1nc(C#N)c2c(=O)[nH]c(C3CCC3c3ncccn3)nc21 (single isomer, unassigned) [Example 64, 1-(1-(5-fluoropyridin-3-yl)ethyl)-4-oxo-6-(2-(pyrimidin-2-yl)cyclobutyl)-4,5-dihydro-1H-pyrazolo[3,4-d]pyrimidine-3-carbonitrile]
Ki: > 0.0675 µM

Structure (SMILES): CC(c1cncc(F)c1)n1nc(C#N)c2c(=O)[nH]c(C3CCC3c3ncccn3)nc21 (single isomer, unassigned) [Example 65, 1-(1-(5-fluoropyridin-3-yl)ethyl)-4-oxo-6-(2-(pyrimidin-2-yl)cyclobutyl)-4,5-dihydro-1H-pyrazolo[3,4-d]pyrimidine-3-carbonitrile]
Ki [1]: > 0.0675 µM

Structure (SMILES): CC(c1cnn(C)c1)n1nc(C#N)c2c(=O)[nH]c(C3CCC3c3ncccn3)nc21 (single isomer, unassigned) [Example 68, 1-(1-(1-methyl-1H-pyrazol-4-yl)ethyl)-4-oxo-6-(2-(pyrimidin-2-yl)cyclobutyl)-4,5-dihydro-1H-pyrazolo[3,4-d]pyrimidine-3-carbonitrile]
Ki: > 0.0675 µM

Structure (SMILES): CC(c1cnn(C)c1)n1nc(C#N)c2c(=O)[nH]c(C3CCC3c3ncccn3)nc21 (single isomer, unassigned) [Example 69, 1-(1-(1-methyl-1H-pyrazol-4-yl)ethyl)-4-oxo-6-(2-(pyrimidin-2-yl)cyclobutyl)-4,5-dihydro-1H-pyrazolo[3,4-d]pyrimidine-3-carbonitrile]
Ki [1]: > 0.0675 µM

Structure (SMILES): CC(c1cncc(F)c1)n1nc(C#N)c2c(=O)[nH]c(C3CCC3c3ncccn3)nc21 (centres unmarked) [Example 66, 1-(1-(5-fluoropyridin-3-yl)ethyl)-4-oxo-6-(2-(pyrimidin-2-yl)cyclobutyl)-4,5-dihydro-1H-pyrazolo[3,4-d]pyrimidine-3-carbonitrile]
Ki [2]: > 0.0675 µM

Structure (SMILES): CC(c1cnn(C)c1)n1nc(C#N)c2c(=O)[nH]c(C3CCC3c3ncccn3)nc21 (centres unmarked) [Example 71, 1-(1-(1-methyl-1H-pyrazol-4-yl)ethyl)-4-oxo-6-(2-(pyrimidin-2-yl)cyclobutyl)-4,5-dihydro-1H-pyrazolo[3,4-d]pyrimidine-3-carbonitrile]
Ki: > 0.0675 µM

Structure (SMILES): CC(C1CCOCC1)n1nc(C#N)c2c(=O)[nH]c(C3CCC3c3ncc(F)cn3)nc21 (centres unmarked) [Example 85, 6-(2-(5-fluoropyrimidin-2-yl)cyclobutyl)-4-oxo-1-(1-(tetrahydro-2H-pyran-4-yl)ethyl)-4,5-dihydro-1H-pyrazolo[3,4-d]pyrimidine-3-carbonitrile]
Ki [2]: > 0.607 µM

Ki [2]: 0.0083 µM
Structure (SMILES): C[C@H](c1ccc(C(F)(F)F)nc1)n1nc(C#N)c2c(=O)[nH]c([C@@H]3CC[C@H]3c3nc(C(F)F)cc(C(F)F)n3)nc21 [Example 116, 6-((1R,2R)-2-(4,6-bis(difluoromethyl)pyrimidin-2-yl)cyclobutyl)-4-oxo-1-((R)-1-(6-(trifluoromethyl)-pyridin-3-yl)ethyl)-4,5-dihydro-1H-pyrazolo[3,4-d]pyrimidine-3-carbonitrile]
